What was measured:
trypsin = assay: Inhibitory activity for trypsin; type: biochemical
human thrombin = biological target: T1, human thrombin (Homo sapiens, UniProt P00734); assay: Inhibitory activity for thrombin (chromogenic substrate hydrolysis, 405 nm); type: biochemical; conditions: for Selectivity (trypsin/thrombin): IC50 for trypsin divided by IC50 for thrombin; for IC50: human thrombin, 20 min, pH 8.0, N-benzoyl-Phe-Val-Arg-p-nitroanilide
T1 construct: purchased Sigma T-6759
Protocol: 20 μl of each compound of the present invention was dissolved in 50% methanol in various concentrations and then added to each well of a microplate, to each of which 160 μl of the reaction medium containing 125 mM NaCl, 50 mM Tris-HCl (pH 8.0) and 2 mM synthetic substrate (N-benzoyl-Phe-Val-Arg-p-nitroanilide, Sigma B-7632) were added. 20 μl of human thrombin solution (5 units/ml, Sigma T-6759, manufactured by Sigma Co.) containing 0.1% bovine serum albumin was added to each well to initiate the enzymatic reaction. After 20 minutes, the hydrolysis of substrate was determined by measuring the absorbance at 405 nm. […] The selectivity index was calculated by dividing the IC50 value for trypsin by the IC50 value for thrombin. The thrombin inhibitory activity and the trypsin inhibitory activity for the compound of the present invention are shown in the following Table 2.

Compound | IC50 (trypsin) [nM] | Selectivity (trypsin/thrombin) (human thrombin) | IC50 (human thrombin) [nM]
CCn1c(CC[C@@H]2CCCN2Cc2c(C(N)=O)sc3ccccc23)cc2ccc(C(=N)N)cc21 [Compound 8] | 460 | 48.6 | 9.47
CCn1c(CC[C@@H]2CCCN2C(=O)Cc2cccc(Cl)c2)cc2ccc(C(=N)N)cc21 [Compound 15] | 608 | 30.2 | 20.1
CCn1c(CC[C@@H]2CCCN2C(=O)C(c2ccccc2)C2CCCC2)cc2ccc(C(=N)N)cc21 (stereo partly drawn) [Compound 30, 1-ethyl-2-[2-[(S)-1-(2-cyclopentyl-2-phenylacetyl)pyrrolidin-2-yl]ethyl]indole-6-carboxamidine] | 420 | 46.6 | 9.01
CCOC(=O)CN[C@@H](C(=O)N1CCC[C@H]1CCc1cc2ccc(C(=N)N)cc2n1CC)c1ccccc1 [Compound 38, ethyl 2-[[(R)-2-[2-[(S)-2-[2-(6-amidino-1ethylindol-2-yl)ethyl]pyrrolidinyl]-2-oxo1-phenyl]ethyl]amino]acetate] | 184 | 24.2 | 7.59
CCOC(=O)C(C(=O)N1CCC[C@H]1CCc1cc2ccc(C(=N)N)cc2n1CC)C1CCCC1 (stereo partly drawn) [Compound 44, ethyl 3-[(S)-2-[2-(6-aminido-1-ethylindol-2-yl)ethyl]pyrrolidinyl]-2-cyclopentyl-3-oxopropanoate] | 313 | 33.9 | 9.23
CCn1c(CC[C@@H]2CCCN2C(=O)CN(C2CC2)S(C)(=O)=O)cc2ccc(C(=N)N)cc21 [Compound 58, 1-ethyl-2-[2-[(S)-1-[2-[cyclopropyl(methylsulfonyl)amino]acetyl]pyrrolidin-2-yl]ethyl]indole-6-carboxamidine] | 52.2 | 17.4 | 3
CCn1c(CC[C@@H]2CCCN2C(=O)[C@H]2CCCN2C(=O)C(C)CN)cc2ccc(C(=N)N)cc21 (stereo partly drawn) [Compound 156, 1-ethyl-2-[2-[(S)-1-[[(R)-1-(3-amino-2-methylpropanoyl)pyrrolidin-2-yl]carbonyl]pyrrolidin-2-yl]ethyl]indole-6-carboxamidine] | – | – | 28.6
CCn1c(CC[C@@H]2CCCN2C(=O)[C@H]2CCCN2C(=O)CC(C)N)cc2ccc(C(=N)N)cc21 (stereo partly drawn) [Compound 157, 1-ethyl-2-[2-[(S)-1-[[(R)-1-(3-amino-butanoyl)pyrrolidin-2-yl]carbonyl]pyrrolidin-2-yl]ethyl]indole-6-carboxamidine] | – | – | 26.9
CCn1c(CC[C@@H]2CCCN2C(=O)[C@H]2CCCN2C(=O)CCNS(C)(=O)=O)cc2ccc(C(=N)N)cc21 [Compound 158, 1-ethyl-2-[2-[(S)-1-[[(R)-1-[3-[(methanesulfonyl)amino]propanoyl]pyrrolidin-2-yl]carbonyl]pyrrolidin-2-yl]ethyl]indole-6-carboxamidine] | – | – | 5.5
CCn1c(CC[C@@H]2CCCN2C(=O)[C@H]2CCCN2C(=O)C[C@H](NS(C)(=O)=O)C(=O)O)cc2ccc(C(=N)N)cc21 [Compound 163, 4-[(R)-2-[[(S)-2-[2-(6-amidino-1-ethylindol-2-yl)ethyl]pyrrolidinyl]carbonyl]pyrrolidinyl]-(S)-2-[(methanesulfonyl)amino]-4-oxobutanoic acid] | – | 25.6 | 19.4
CCn1c(CC[C@@H]2CCCN2C(=O)[C@H]2CCCN2C(=O)C2CCCNC2)cc2ccc(C(=N)N)cc21 (stereo partly drawn) [Compound 168, 1-ethyl-2-[2-[(S)-1-[[(R)-1-(3-piperidinylcarbonyl)pyrrolidin-2-yl]carbonyl]pyrrolidin-2-yl]ethyl]indole-6-carboxamidine] | – | – | 31.6
CCn1c(CC[C@@H]2CCCN2C(=O)[C@H]2CCCN2C(=O)C2CCNCC2)cc2ccc(C(=N)N)cc21 [Compound 169, 1-ethyl-2-[2-[(S)-1-[[(R)-1-[(4-piperidinyl)carbonyl]pyrrolidin-2-yl]carbonyl]pyrrolidin-2-yl]ethyl]indole-6-carboxamidine] | – | – | 30.2
CCCC(CCC)C(=O)N1CCC[C@@H]1C(=O)N1CCC[C@H]1CCc1cc2ccc(C(=N)N)cc2n1CC [Compound 173, 1-ethyl-2-[2-[(S)-1-[[(R)-1-(2-propylpentanoyl)pyrrolidin-2-yl]carbonyl]pyrrolidin-2-yl]ethyl]indole-6-carboxamidine] | – | – | 34.6
CCOC(=O)CC(=O)N1CCC[C@@H]1C(=O)N1CCC[C@H]1CCc1cc2ccc(C(=N)N)cc2n1CC [Compound 174, ethyl 3-[(R)-2-[[(S)-2-[2-(6-amidino-1-ethylindol-2-yl)ethyl]pyrrolidinyl]carbonyl]pyrrolidinyl]-3-oxopropanoate] | – | 25.7 | 16.2
CCn1c(CC[C@@H]2CCCN2C(=O)[C@H]2CCCN2C(=O)CC(N)=O)cc2ccc(C(=N)N)cc21 [Compound 175, 1-ethyl-2-[2-[(S)-1-[[(R)-1-(2-carbamoylacetyl)pyrrolidin-2-yl]carbonyl]pyrrolidin-2-yl]ethyl]indole-6-carboxamidine] | – | – | 9.92
CCOC(=O)CCC(=O)N1CCC[C@@H]1C(=O)N1CCC[C@H]1CCc1cc2ccc(C(=N)N)cc2n1CC [Compound 176, ethyl 4-[(R)-2-[[(S)-2-[2-(6-amidino-1-ethylindol-2-yl)ethyl]pyrrolidinyl]carbonyl]pyrrolidinyl]-4-oxobutanoate] | – | 20.7 | 21.7
CCn1c(CC[C@@H]2CCCN2C(=O)[C@H]2CCC(=O)N2CC(N)=O)cc2ccc(C(=N)N)cc21 [Compound 187, 1-ethyl-2-[2-[(S)-1-[[(R)-1-(carbamoylmethyl)-5-oxo-pyrrolidin-2-yl]carbonyl]pyrrolidin-2-yl]ethyl]indole-6-carboxamidine] | – | – | 25.6
CCn1c(CC[C@@H]2CCCN2C(=O)C2CCCCN2CC(=O)OC)cc2ccc(C(=N)N)cc21 (stereo partly drawn) [Compound 192, methyl-2-[2-[[(S)-2-[2-(6-amidino-1-ethylindol-2-yl)ethyl]pyrrolidinyl]carbonyl]piperidinyl]acetate] | – | – | 33.8
CCn1c(CC[C@@H]2CCCN2C(=O)C2CCCNC2)cc2ccc(C(=N)N)cc21 (stereo partly drawn) [Compound 194, 1-ethyl-2-[2-[(S)-1-[(3-piperidinyl)carbonyl]pyrrolidin-2-yl]ethyl]indole-6-carboxamidine] | – | – | 31.7
CCOC(=O)C1CCCN1CC(=O)N1CCC[C@H]1CCc1cc2ccc(C(=N)N)cc2n1CC (stereo partly drawn) [Compound 196, ethyl 1-[2-[(S)-2-[2-(6-amidino-1-ethylindol-2-yl)ethyl]pyrrolidinyl]-2-oxoethyl]pyrrolidine-2-carboxylate] | – | 14.4 | 37.2
CCOC(=O)Cn1c(CC[C@@H]2CCCN2C(=O)[C@H]2CCCN2C(C)=O)cc2ccc(C(=N)N)cc21 [Compound 222, ethyl 2-[2-[2-[(S)-1-[((R)-1-acetylpyrrolidin-2-yl)carbonyl]pyrrolidin-2-yl]ethyl]-6-amidinoindolyl]acetate] | – | – | 11.4
CC(=O)N1CCC[C@@H]1C(=O)N1CCC[C@H]1CCc1cc2ccc(C(=N)N)cc2n1CC(N)=O [Compound 224, 2-[2-[(S)-1-[((R)-1-acetylpyrrolidin-2-yl)carbonyl]pyrrolidin-2-yl]ethyl]-1-(carbamoylmethyl)indole-6-carboxamidine] | – | – | 24.1
N=C(N)c1ccc2cc(CC[C@H]3CCCN3C(=O)Cc3ccccc3)ccc2c1 [Compound 244, 6-[2-[(S)-1-(2-phenylacetyl)pyrrolidine-2-yl]ethyl]naphthalene-2-carboxamidine] | – | – | 53.6

From patent publication US6201006A, “Aromatic amidine derivatives useful as selective thrombin inhibitors” (C & C Research Laboratories, priority 1996, dated 2001)
